The source of these data is patent US10392398B2, “Inhibitors of Late SV40 Factor (LSF) as cancer chemotherapeutics” (TRUSTEES OF BOSTON UNIVERSITY, priority 2010, dated 2019).

In general, IC50 refers to the point on the concentration scale where inhibition reaches its midpoint. In general, GI50 refers to the concentration that inhibits growth by half.

One series concerns HeLa cells. Briefly: Cell proliferation assay (MTS), HeLa. The format is cell-based. The note with it: Homo sapiens. The method, then:
Cells were plated at 3×10^4 cells/mL, A549 and HeLa, and 1×10^4 cells/mL, NIH/3T3, in 96-well plates and incubated for 24 h to allow for cell adhesion. LSF-library compounds were dissolved in DMSO, serial diluted in appropriate medium and added to cells in triplicate (2 plates). DMSO was added to control wells at a final concentration of 1%. After 72 h incubation in the presence of compound, confluent cells were assayed for growth proliferation with CellTiter 96® AQueous One Solution Cell Proliferation Assay (MTS) (Promega) according to the manufacturer's protocol. Plates were read at 490 nm on a microplate reader, and IC50 values were determined as the percentage of compound-treated cell growth to control cell growth. HCC cells—one hour after plating HCC cells onto 96-well plates, compound or vehicle (DMSO) was added to the desired concentrations, keeping DMSO at 0.5%. At indicated time points, cell viability was assayed using the CellTiter 96® Non-Radioactive Cell Proliferation Assay (MTT) (Promega).

Another series deals with QGY-7703-derived tumors. Briefly: Subcutaneous xenograft model of HCC in mice. The format is in vivo. The note with it: for growth of hepatocellular carcinoma in vivo: intraperitoneally once every 3 days, about 1.0-2.0 mg/kg. From the text: The inventors, in collaboration with other scientists performed in vivo experiments in a subcutaneous xenograft model, where mice with small QGY-7703-derived tumors were given multiple, spaced intraperitoneal injections of FQI1 (Formula IV) over a 2 week period, followed by an additional 2-weeks prior to analysis. […] However, expression of osteopontin, whose gene is activated directly by LSF^8, was abolished by FQI1 treatment, as was expression of Ki-67, indicative of the replicative capacity of the tumors (data not shown). […] In contrast to the dramatic effects on tumor growth, no general toxicity was evident in the inhibitor-treated animals, as assayed by lack of changes in body weight, feeding, grooming, posture, and general behavior, as well as hematoxylin and eosin staining of multiple tissues (data not shown), and levels of liver enzymes and protein in the blood (data not shown).

Take `CCOc1ccccc1C1CC(=O)Nc2cc3c(cc21)OCO3` (racemic) [FQI1, 8-(2-ethoxyphenyl)-7,8-dihydro-[1,3]dioxolo[4,5-g]quinolin-6(5H)-one]: in the series with HeLa cells (HeLa, Example 7, FIG. 8, read-out: growth inhibition of HeLa Cell Line IC50), the IC50 was 790 ± 35 nM. This compound also returned a concentration for 50% growth inhibition (GI50) with HeLa cells (72 h, MTS) of 0.79 µM. The “suppression of growth of HCC tumor size” value with QGY-7703-derived tumors (about 1.0-2.0 mg/kg once every 3 days, versus untreated mice, data not shown) is 65-80%. In addition, in the series with QGY-7703-derived tumors (body weight, feeding, grooming, posture, behavior, H&E of tissues), the “general toxicity in inhibitor-treated animals” value is “not evident”. For the same compound, the “expression of Ki-67 in endpoint tumors” value with QGY-7703-derived tumors (immunofluorescence) is on record as “abolished”. For the same compound, the “expression of osteopontin in endpoint tumors” value in the series on QGY-7703-derived tumors (immunofluorescence) is recorded as “abolished”. Further, the “tumor growth in mouse xenograft” value in the series on QGY-7703-derived tumors (in words) is “remarkable decrease in tumor growth”. The “growth of hepatocellular carcinoma in vivo” value in the series on QGY-7703-derived tumors (in words, listed as formula (IV)) is “prevented or delayed the growth of hepatocellular carcinoma”; in the series with QGY-7703-derived tumors (in words, listed as formula IV), “effective at abrogating the growth of hepatocellular carcinoma in vivo”. Besides, the “reduction of HCC tumor volume” value with QGY-7703-derived tumors (mouse model, data not shown) was “about 80%”. Further, in the series on QGY-7703-derived tumors (multiple intraperitoneal injections over 2 weeks, analysis 2 weeks later, data not shown), the “decrease in endpoint tumor volumes” value is approximately 9 fold.
